{
  "source": "ChEMBL document CHEMBL3351856",
  "about": "“Structural revision of kynapcin-12 by total synthesis, and inhibitory activities against prolyl oligopeptidase and cancer cells” (Bioorg Med Chem Lett, 2014)",
  "key": {"cells": {"test": "cells", "conditions": "Homo sapiens, HL-60, 48 h", "description": "Cytotoxicity against human HL60 cells after 48 hrs by MTT assay"}, "Prolyl endopeptidase": {"target": "T1, Prolyl endopeptidase (Homo sapiens, UniProt P48147)", "T1 sequence (P48147 whole entry)": "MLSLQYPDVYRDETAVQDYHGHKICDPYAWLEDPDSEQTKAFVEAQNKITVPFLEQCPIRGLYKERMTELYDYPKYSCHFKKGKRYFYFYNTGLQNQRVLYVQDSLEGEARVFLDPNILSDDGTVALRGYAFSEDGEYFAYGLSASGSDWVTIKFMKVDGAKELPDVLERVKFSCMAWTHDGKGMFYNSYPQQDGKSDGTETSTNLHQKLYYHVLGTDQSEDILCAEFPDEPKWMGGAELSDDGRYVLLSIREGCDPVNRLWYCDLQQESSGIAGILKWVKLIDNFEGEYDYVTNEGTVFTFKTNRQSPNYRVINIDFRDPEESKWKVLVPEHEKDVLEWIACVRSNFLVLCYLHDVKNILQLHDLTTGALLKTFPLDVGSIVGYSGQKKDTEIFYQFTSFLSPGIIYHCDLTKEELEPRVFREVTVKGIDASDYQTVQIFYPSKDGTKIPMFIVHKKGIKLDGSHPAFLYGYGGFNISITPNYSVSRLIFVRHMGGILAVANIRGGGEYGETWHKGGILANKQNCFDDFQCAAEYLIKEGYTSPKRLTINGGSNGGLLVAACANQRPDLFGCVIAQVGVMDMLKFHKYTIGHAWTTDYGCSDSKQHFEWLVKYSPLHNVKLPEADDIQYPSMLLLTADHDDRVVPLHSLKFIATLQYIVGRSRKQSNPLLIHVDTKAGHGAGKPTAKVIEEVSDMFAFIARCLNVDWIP", "test": "Inhibition of prolyl oligopeptidase (unknown origin)"}},
  "note": "Bridge positions count the residues as written; N and C are the ends. Peptide text beside a SMILES is read from it.",
  "data": [
    {"smiles": "COCC1=C(c2ccc(O[Si](C)(C)C(C)(C)C)cc2)C(=O)C(COC)=C(c2ccc(O[Si](C)(C)C(C)(C)C)cc2)C1=O", "values": [
      {"measurement": "IC50", "setting": "cells", "value": 6.5, "unit": "µM"}
    ]},
    {"smiles": "CC[C@H](C)[C@H](NC(=O)[C@H](Cc1ccccc1)NC(=O)[C@@H](NC(=O)[C@H](Cc1cnc[nH]1)NC(=O)CNC(=O)CNC(=O)[C@H](Cc1ccccc1)NC(=O)[C@H](CC(C)C)NC(=O)[C@@H]1CC(=O)NCC(=O)N[C@@H](Cc2ccc(O)cc2)C(=O)N2CCC[C@H]2C(=O)N[C@@H](Cc2c[nH]c3ccccc23)C(=O)N[C@@H](Cc2c[nH]c3ccccc23)C(=O)N[C@@H](CC(=O)O)C(=O)N[C@@H](Cc2ccc(O)cc2)C(=O)N[C@@H](CCCNC(=N)N)C(=O)N1)[C@@H](C)O)C(=O)N[C@@H](CO)C(=O)N1CCC[C@H]1C(=O)O", "note": "(GYPWWDYRDLFGGHTFISP-OH; lactam N-9)", "values": [
      {"measurement": "IC50", "setting": "Prolyl endopeptidase", "value": 1.4, "unit": "µM"}
    ]},
    {"smiles": "CC(=O)Oc1c(OC(C)=O)c(-c2ccc(O)cc2)c(O)c(O)c1-c1ccc(O)cc1", "values": [
      {"measurement": "IC50", "setting": "cells", "value": "> 20", "unit": "µM"}
    ]},
    {"smiles": "COCc1c(OC(C)=O)c(-c2ccc(O[Si](C)(C)C(C)(C)C)cc2)c(COC)c(OC(C)=O)c1-c1ccc(O[Si](C)(C)C(C)(C)C)cc1", "values": [
      {"measurement": "IC50", "setting": "Prolyl endopeptidase", "value": "> 50", "unit": "µM"},
      {"measurement": "IC50", "setting": "cells", "value": 19.1, "unit": "µM"}
    ]},
    {"smiles": "CC(=O)Oc1c(OC(C)=O)c(-c2ccc(O[Si](C)(C)C(C)(C)C)cc2)c2c(c1-c1ccc(O[Si](C)(C)C(C)(C)C)cc1)OC(OC(C)=O)O2", "values": [
      {"measurement": "IC50", "setting": "Prolyl endopeptidase", "value": 3.5, "unit": "µM"},
      {"measurement": "IC50", "setting": "cells", "value": 4.2, "unit": "µM"}
    ]},
    {"smiles": "COCc1c(COC)c(-c2ccc(O[Si](C)(C)C(C)(C)C)cc2)c(COC)c(COC)c1-c1ccc(O[Si](C)(C)C(C)(C)C)cc1", "values": [
      {"measurement": "IC50", "setting": "Prolyl endopeptidase", "value": "> 50", "unit": "µM"},
      {"measurement": "IC50", "setting": "cells", "value": 14.4, "unit": "µM"}
    ]},
    {"smiles": "CC(=O)Oc1c(OC(C)=O)c(-c2ccc(O[Si](C)(C)C(C)(C)C)cc2)c2c(c1-c1ccc(O[Si](C)(C)C(C)(C)C)cc1)OCO2", "values": [
      {"measurement": "IC50", "setting": "cells", "value": 2.9, "unit": "µM"}
    ]},
    {"smiles": "CC(=O)OC1=C(c2ccc(O)cc2)C(=O)C(OC(C)=O)=C(c2ccc(O)cc2)C1=O", "values": [
      {"measurement": "IC50", "setting": "cells", "value": "> 20", "unit": "µM"}
    ]},
    {"smiles": "CC(C)(C)[Si](C)(C)Oc1ccc(C2=C3OCOC3=C(c3ccc(O[Si](C)(C)C(C)(C)C)cc3)C(=O)C2=O)cc1", "values": [
      {"measurement": "IC50", "setting": "Prolyl endopeptidase", "value": 15.1, "unit": "µM"},
      {"measurement": "IC50", "setting": "cells", "value": 2.8, "unit": "µM"}
    ]}
  ]
}
